Our source for the AC50 values is US20250171438A1 (Agios Pharmaceuticals, Inc., priority 2022, published 2025).

Structures are written as SMILES.

The target in one assay is T1, human PAH with the R408W mutation (Homo sapiens, UniProt P00439, R408W).
T1 construct: expressed in transfected cells
T1 sequence (P00439 1-452 R408W): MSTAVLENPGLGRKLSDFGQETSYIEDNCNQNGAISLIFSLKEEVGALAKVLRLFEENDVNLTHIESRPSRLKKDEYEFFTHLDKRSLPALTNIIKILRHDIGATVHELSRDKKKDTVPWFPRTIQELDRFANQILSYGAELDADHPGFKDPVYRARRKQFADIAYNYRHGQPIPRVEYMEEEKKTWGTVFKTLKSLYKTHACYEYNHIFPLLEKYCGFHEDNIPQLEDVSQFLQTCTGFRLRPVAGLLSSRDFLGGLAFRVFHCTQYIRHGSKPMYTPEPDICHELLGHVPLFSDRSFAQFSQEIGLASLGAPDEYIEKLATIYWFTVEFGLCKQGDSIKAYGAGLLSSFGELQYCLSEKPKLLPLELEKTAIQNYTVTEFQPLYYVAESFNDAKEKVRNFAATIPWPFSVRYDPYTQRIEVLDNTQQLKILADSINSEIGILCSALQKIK
In words: Cell Based Phenylalanine Flux Assay. Particulars: A375 cells expressing human R408W PAH; 24 hrs compound incubation; 13C-Tyrosine by LC-MS; average where tested multiple times; read-out: AC50.
As to `CC(C)(O)c1nc(C(F)F)c(C(=O)N2CCc3[nH]cnc3[C@@H]2c2nc3ccccc3s2)o1` [Example 1810, (R)-(4-(benzo[d]thiazol-2-yl)-6,7-dihydro-1H-imidazo[4,5-c]pyridin-5(4H)-yl)(4-(difluoromethyl)-2-(2-hydroxypropan-2-yl)oxazol-5-yl)methanone], the AC50 lay within 1 to 5 µM. For `O=C(c1cnc(C2CC2)s1)N1CCc2[nH]cnc2[C@H]1c1nc2ccccc2s1` [Example 1179], the AC50 is less than 0.5 µM. On the same count and under the same terms, for `N#Cc1ccn2ncc(C(=O)N3CCc4[nH]cnc4[C@H]3c3nc4ccc(F)cc4s3)c2c1` [Example 1155, (S)-3-(4-(6-fluorobenzo[d]thiazol-2-yl)-4,5,6,7-tetrahydro-1H-imidazo[4,5-c]pyridine-5-carbonyl)pyrazolo[1,5-a]pyridine-5-carbonitrile] the value was 0.5 to 1 µM; for `O=C(CCC1CCCC1)N1CCc2[nH]cnc2[C@@H]1c1nc2ccccc2[nH]1` [Example 912, (R)-1-(4-(1H-benzo[d]imidazol-2-yl)-6,7-dihydro-1H-imidazo[4,5-c]pyridin-5(4H)-yl)-3-cyclopentylpropan-1-one], more than 5 µM; for `O=C(CCc1nccs1)N1CCc2[nH]cnc2[C@H]1c1nc2cccc(Br)c2s1` [Example 1121, (S)-1-(4-(7-bromobenzo[d]thiazol-2-yl)-6,7-dihydro-1H-imidazo[4,5-c]pyridin-5(4H)-yl)-3-(thiazol-2-yl)propan-1-one], 0.5 to 1 µM. For the compound `O=C(c1oc(N2CCOCC2)nc1C(F)F)N1CCc2[nH]cnc2[C@@H]1c1nc2c(F)cccc2s1` [Example 2026, (R)-(4-(difluoromethyl)-2-morpholinooxazol-5-yl)(4-(4-fluorobenzo[d]thiazol-2-yl)-6,7-dihydro-1H-imidazo[4,5-c]pyridin-5(4H)-yl)methanone], the concentration at half-maximal activity (AC50) is 1 to 5 µM. For the compound `CC1(c2nc(C(F)F)c(C(=O)N3CCc4[nH]cnc4[C@@H]3c3nc4ccccc4s3)o2)CC1` [Example 1852, (R)-(4-(benzo[d]thiazol-2-yl)-6,7-dihydro-1H-imidazo[4,5-c]pyridin-5(4H)-yl)(4-(difluoromethyl)-2-(1-methylcyclopropyl)oxazol-5-yl)methanone], the AC50 is less than 0.5 µM.

For the compound `Cc1cc(F)ccc1-c1nnc(C(=O)N2CCc3[nH]cnc3[C@H]2c2nc3ccccc3s2)o1` [Example 1783], the AC50 was less than 0.5 µM. Same read-out and setting: with `O=C(C1CN(c2ccc(F)cn2)C1)N1CCc2[nH]cnc2[C@@H]1c1nc2ccccc2s1` [Example 1838, (R)-(4-(benzo[d]thiazol-2-yl)-6,7-dihydro-1H-imidazo[4,5-c]pyridin-5(4H)-yl)(1-(5-fluoropyridin-2-yl)azetidin-3-yl)methanone] the figure was more than 5 µM; with `O=C(c1nncs1)N1CCc2[nH]cnc2[C@H]1c1nc2ccc(Br)cc2[nH]1` [Example 977, (S)-(4-(6-bromo-1H-benzo[d]imidazol-2-yl)-6,7-dihydro-1H-imidazo[4,5-c]pyridin-5(4H)-yl)(1,3,4-thiadiazol-2-yl)methanone], 0.5 to 1 µM.

The same assay, now with this note: A375 cells expressing human R408W PAH; 24 hrs with compound; 13C-Tyrosine by LC-MS; average where tested multiple times; read-out: AC50.
Consider `CNCc1ccc2c(C(=O)N3CCc4[nH]cnc4C3c3nc4ccccc4s3)cnn2c1` (centres unmarked), for which the AC50 fell in the range of 1 to 5 µM. On the same count and under the same terms, for `O=C(c1cnn2cc(Br)ccc12)N1CCc2[nH]cnc2[C@H]1c1nc2ccccc2[nH]1` [(S)-(4-(1H-benzo[d]imidazol-2-yl)-1,4,6,7-tetrahydro-5H-imidazo[4,5-c]pyridin-5-yl)(6-bromopyrazolo[1,5-a]pyridin-3-yl)methanone] the value was 1 to 5 µM; for `O=C(C1CC1)N1CCc2[nH]cnc2[C@H]1c1nc2ccccc2[nH]1` [(S)-(4-(1H-benzo[d]imidazol-2-yl)-1,4,6,7-tetrahydro-5H-imidazo[4,5-c]pyridin-5-yl)(cyclopropyl)methanone], 1 to 5 µM. Consider `Cc1nc(C(C)(C)S(C)(=O)=O)oc1C(=O)N1CCc2[nH]cnc2[C@@H]1c1nc2c(F)cccc2s1` (single isomer, unassigned), for which the AC50 is more than 5 µM.
